68 sequences from the supplement of paper PMC11208160 can be followed below.
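Also: IS621 bridge recombinase in Escherichia coli cells against a fixed T5 target plasmid.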

The data set is described as follows: recombinant UMI read abundance after kanamycin selection (control-corrected) (log10(CPM+1)); higher = more efficient recombination; extreme values may be limits of the assay; sequences stand for … in AGTGCAGAGAAAATCGGCCAGTTTTCTCTGCCTGCAGTCCGCATGCCGTGGGACCCCTTGGGTTCTAACCTGTTGCCTAGATTTATGCAGCGGACTGCCTTTCTCCCAAAGTGATAAACCGG…AGGTTGGTTTCACT; site = the 11-nt donor. In a few lines:
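Sequenced counts of recombinant UMIs were turned into CPM, averaged across replicates and scaled with control-derived factors. The reported figure is log10(CPM+1). Those UMIs, each 12 nt long, tagged donor and donor-binding-loop pairs on a plasmid with a promoterless kanamycin gene, screened as a pool in Escherichia coli with IPTG (0.07 mM) plus kanamycin or without selection.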
With “CGTGCCCCATGGACCGGTTTTCCCGGTAATCCGTATTTGGC (site CGTGCCCCTGC)”, the “recombinant UMI read abundance (log10)” value was 0. “CGTGGAACATGGACCGGTTTTCCCGGTAATCCGTATTTGCG (site CGTGGAACTCG)”: the “recombinant UMI read abundance (log10)” value stood at 2.05. Under “CGTGGAGCATGGACCGGTTTTCCCGGTAATCCGTATTTGTT (site CGTGGAACTAA)” stands 1.66; under “CGTGGAGCATGGACCGGTTTTCCCGGTAATCCGTATTTGTT (site CGTGGACCTAA)”, 0.00893. Turning to “CGTGGAGCATGGACCGGTTTTCCCGGTAATCCGTATTTGTT (site CGTGGAGCTAA)”, the “recombinant UMI read abundance (log10)” value came out at 2.02. In the case of “CGTGGAGCATGGACCGGTTTTCCCGGTAATCCGTATTTGTT (site CGTGGATCTAA)” it was 1.23; in that of “CGTGGATCATGGACCGGTTTTCCCGGTAATCCGTATTTGTT (site CGTGGAACTAA)”, 0.0027; in that of “CGTGGATCATGGACCGGTTTTCCCGGTAATCCGTATTTGTT (site CGTGGACCTAA)”, 0.0255. Consider “CGTGGATCATGGACCGGTTTTCCCGGTAATCCGTATTTGTT (site CGTGGAGCTAA)”, for which the “recombinant UMI read abundance (log10)” value came to 0. For the sequence “CGTGGATCATGGACCGGTTTTCCCGGTAATCCGTATTTGTT (site CGTGGATCTAA)”, the “recombinant UMI read abundance (log10)” value was determined as 2.34.

“CGTGGTACATGGACCGGTTTTCCCGGTAATCCGTATTTGTT (site CGTGGAACTAA)”: the “recombinant UMI read abundance (log10)” value was determined as 0.177. Regarding “CGTGGTACATGGACCGGTTTTCCCGGTAATCCGTATTTGTT (site CGTGGCACTAA)”, the “recombinant UMI read abundance (log10)” value worked out at 0.0912.

Take “CGTGGTACATGGACCGGTTTTCCCGGTAATCCGTATTTGTT (site CGTGGGACTAA)”: the “recombinant UMI read abundance (log10)” value was found to be 0. Take “CGTGGTACATGGACCGGTTTTCCCGGTAATCCGTATTTGTT (site CGTGGTACTAA)”: the “recombinant UMI read abundance (log10)” value worked out at 1.25. In the case of “CGTGTGGCATGGACCGGTTTTCCCGGTAATCCGTATTTGCT (site CGTATGGCTAG)” it was 1.01; in that of “CGTGTGGCATGGACCGGTTTTCCCGGTAATCCGTATTTGCT (site CGTCTGGCTAG)”, 0.00526; in that of “CGTGTGGCATGGACCGGTTTTCCCGGTAATCCGTATTTGCT (site CGTGTGGCTAG)”, 3.26. Consider “CGTGTGGCATGGACCGGTTTTCCCGGTAATCCGTATTTGCT (site CGTTTGGCTAG)”, for which the “recombinant UMI read abundance (log10)” value amounted to 0. Under “CGTGTTGCATGGACCGGTTTTCCCGGTAATCCGTATTTGTC (site CGTGTTGCTGA)” stands 2.08. Under “CGTTAGGCATGGACCGGTTTTCCCGGTAATCCGTATTTGAG (site CGTTAGACTCT)” stands 0.855; under “CGTTAGGCATGGACCGGTTTTCCCGGTAATCCGTATTTGAG (site CGTTAGCCTCT)”, 0.00789; under “CGTTAGGCATGGACCGGTTTTCCCGGTAATCCGTATTTGAG (site CGTTAGGCTCT)”, 1.23. Under “CGTTAGGCATGGACCGGTTTTCCCGGTAATCCGTATTTGAG (site CGTTAGTCTCT)” stands 0.173; under “CGTTATCCATGGACCGGTTTTCCCGGTAATCCGTATTTGTT (site CGGAATCCTAA)”, 0. Consider “CGTTATCCATGGACCGGTTTTCCCGGTAATCCGTATTTGTT (site CGTTATCCTAA)”, for which the “recombinant UMI read abundance (log10)” value worked out at 0.375. In the case of “CGTTCATCATGGACCGGTTTTCCCGGTAATCCGTATTTGCT (site CGATCATCTAG)” it was 0; in that of “CGTTCATCATGGACCGGTTTTCCCGGTAATCCGTATTTGCT (site CGCTCATCTAG)”, 1.41. Under “CGTTCATCATGGACCGGTTTTCCCGGTAATCCGTATTTGCT (site CGGTCATCTAG)” stands 0; under “CGTTCATCATGGACCGGTTTTCCCGGTAATCCGTATTTGCT (site CGTTCATCTAG)”, 1.35; under “CGTTCCCCATGGACCGGTTTTCCCGGTAATCCGTATTTGTA (site AGTTCCCCTTA)”, 0.00297. Under “CGTTCCCCATGGACCGGTTTTCCCGGTAATCCGTATTTGTA (site CGTTCCCCTTA)” stands 0.531; under “CGTTCCCCATGGACCGGTTTTCCCGGTAATCCGTATTTGTA (site GGTTCCCCTTA)”, 0.00349; under “CGTTCCCCATGGACCGGTTTTCCCGGTAATCCGTATTTGTA (site TGTTCCCCTTA)”, 0.00473. On to “CGTTCGGCATGGACCGGTTTTCCCGGTAATCCGTATTTGCT (site CGTTAGGCTAG)”, for which the “recombinant UMI read abundance (log10)” value came to 0.00568.

In the case of “CGTTCGGCATGGACCGGTTTTCCCGGTAATCCGTATTTGCT (site CGTTCGGCTAG)”, the “recombinant UMI read abundance (log10)” value was found to be 1.63. Under “CGTTCGGCATGGACCGGTTTTCCCGGTAATCCGTATTTGCT (site CGTTGGGCTAG)” stands 0.00466. As to “CGTTCGGCATGGACCGGTTTTCCCGGTAATCCGTATTTGCT (site CGTTTGGCTAG)”, the “recombinant UMI read abundance (log10)” value came out at 0. For the sequence “CGTTGCTCATGGACCGGTTTTCCCGGTAATCCGTATTTGAT (site CGTTGCTCTAT)”, the “recombinant UMI read abundance (log10)” value is 1.8. “CGTTGTACATGGACCGGTTTTCCCGGTAATCCGTATTTGCT (site CGTTGTACTAG)”: the “recombinant UMI read abundance (log10)” value is 1.39. Under “CGTTTCGCATGGACCGGTTTTCCCGGTAATCCGTATTTGCT (site CGTTTAGCTAG)” stands 0. “CGTTTCGCATGGACCGGTTTTCCCGGTAATCCGTATTTGCT (site CGTTTCGCTAG)”: the “recombinant UMI read abundance (log10)” value came out at 0.892.

On to “CGTTTCGCATGGACCGGTTTTCCCGGTAATCCGTATTTGCT (site CGTTTGGCTAG)”, for which the “recombinant UMI read abundance (log10)” value came to 0. With “CGTTTCGCATGGACCGGTTTTCCCGGTAATCCGTATTTGCT (site CGTTTTGCTAG)”, the “recombinant UMI read abundance (log10)” value came out at 0. Under “CGTTTGACATGGACCGGTTTTCCCGGTAATCCGTATTTGAG (site CGTTAGACTCT)” stands 0.00643; under “CGTTTGACATGGACCGGTTTTCCCGGTAATCCGTATTTGAG (site CGTTCGACTCT)”, 0. Under “CGTTTGACATGGACCGGTTTTCCCGGTAATCCGTATTTGAG (site CGTTGGACTCT)” stands 0.0522. Under “CGTTTGACATGGACCGGTTTTCCCGGTAATCCGTATTTGAG (site CGTTTGACTCT)” stands 1.03; under “CGTTTGGCATGGACCGGTTTTCCCGGTAATCCGTATTTGCA (site CGTTTGGCTAG)”, 0; under “CGTTTGGCATGGACCGGTTTTCCCGGTAATCCGTATTTGCA (site CGTTTGGCTCG)”, 0.024. Turning to “CGTTTGGCATGGACCGGTTTTCCCGGTAATCCGTATTTGCA (site CGTTTGGCTGG)”, the “recombinant UMI read abundance (log10)” value was 0. Turning to “CGTTTGGCATGGACCGGTTTTCCCGGTAATCCGTATTTGCA (site CGTTTGGCTTG)”, the “recombinant UMI read abundance (log10)” value is 0.562.

Regarding “CTAACAGCATGGACCGGTTTTCCCGGTAATCCGTATTTGTA (site CTAACAGCTTA)”, the “recombinant UMI read abundance (log10)” value was determined as 2.48.

For “CTAACATCATGGACCGGTTTTCCCGGTAATCCGTATTTGCT (site CTAACATCTAG)”, the “recombinant UMI read abundance (log10)” value was 2.12.

Turning to “CTAACTGCATGGACCGGTTTTCCCGGTAATCCGTATTTGTC (site CTAACTGCTGA)”, the “recombinant UMI read abundance (log10)” value is 2.12. With “CTAAGACCATGGACCGGTTTTCCCGGTAATCCGTATTTGCG (site CTAAGACCTCG)”, the “recombinant UMI read abundance (log10)” value came to 0.0114. On to “CTACAACCATGGACCGGTTTTCCCGGTAATCCGTATTTGAT (site CTACAACCTAT)”, for which the “recombinant UMI read abundance (log10)” value came to 0. Under “CTACCATCATGGACCGGTTTTCCCGGTAATCCGTATTTGAC (site CTACCATCTGT)” stands 2.39. In the case of “CTACCATCATGGACCGGTTTTCCCGGTAATCCGTATTTGAC (site CTAGTATCTGT)” it was 0. Take “CTACCGCCATGGACCGGTTTTCCCGGTAATCCGTATTTGAC (site CTACCGCCTGT)”: the “recombinant UMI read abundance (log10)” value worked out at 0.322. In the case of “CTACCGCCATGGACCGGTTTTCCCGGTAATCCGTATTTGCG (site CTACCGCCTCG)” it was 0.268; in that of “CTACGAACATGGACCGGTTTTCCCGGTAATCCGTATTTGGG (site CTACGAACTCC)”, 1.11; in that of “CTACGCCCATGGACCGGTTTTCCCGGTAATCCGTATTTGTG (site CTACGCCCTCA)”, 0.232. In the case of “CTACGTCCATGGACCGGTTTTCCCGGTAATCCGTATTTGAA (site CTACGTCCTTT)” it was 1.23; in that of “CTACTAACATGGACCGGTTTTCCCGGTAATCCGTATTTGCA (site CTACTAACTTA)”, 1.4. Regarding “CTACTAACATGGACCGGTTTTCCCGGTAATCCGTATTTGCA (site CTACTAACTTC)”, the “recombinant UMI read abundance (log10)” value came out at 0.0167. In the case of “CTACTAACATGGACCGGTTTTCCCGGTAATCCGTATTTGCA (site CTACTAACTTG)” it was 2.47; in that of “CTACTAACATGGACCGGTTTTCCCGGTAATCCGTATTTGCA (site CTACTAACTTT)”, 1.47; in that of “CTACTAACATGGACCGGTTTTCCCGGTAATCCGTATTTGGT (site CTACTAACTAC)”, 0.461.
